Patent publication US11149023B2, “Substituted triazole derivatives and uses thereof” (Bayer Pharma Aktiengesellschaft, priority 2017, dated 2021)

How the values were obtained:
human V1a receptor = human V1a receptor (Homo sapiens (Human), UniProt P37288); experiment: Cellular in vitro assay for determining vasopressin receptor activity (V1a, aequorin luminescence); format: cell-based; conditions: for IC50: CHO cell line transfected with human V1a receptor, [Arg8]-vasopressin at EC50 concentration, read-out: IC50 hV1a; for ratio IC50 hV2/hV1a: selectivity, IC50 hV2 divided by IC50 hV1a
human V2 receptor = human V2 receptor (Homo sapiens (Human), UniProt P30518); experiment: Cellular in vitro assay for determining vasopressin receptor activity (V2, CRE-luciferase); format: cell-based; conditions: CHO cell line transfected with human V2 receptor; [Arg8]-vasopressin at EC50 concentration; read-out: IC50 hV2
Sequence of human V2 receptor (P30518 whole entry): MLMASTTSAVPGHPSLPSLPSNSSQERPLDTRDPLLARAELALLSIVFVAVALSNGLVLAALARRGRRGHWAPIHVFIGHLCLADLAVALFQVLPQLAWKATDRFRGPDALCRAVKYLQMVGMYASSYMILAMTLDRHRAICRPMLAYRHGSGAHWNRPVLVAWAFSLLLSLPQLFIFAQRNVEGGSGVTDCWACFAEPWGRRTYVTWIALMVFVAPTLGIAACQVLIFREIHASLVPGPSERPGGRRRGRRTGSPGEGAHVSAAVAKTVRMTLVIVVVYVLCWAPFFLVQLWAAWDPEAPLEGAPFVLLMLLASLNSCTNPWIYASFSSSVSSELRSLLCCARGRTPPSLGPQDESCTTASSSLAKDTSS

Sequence of human V1a receptor (P37288 whole entry): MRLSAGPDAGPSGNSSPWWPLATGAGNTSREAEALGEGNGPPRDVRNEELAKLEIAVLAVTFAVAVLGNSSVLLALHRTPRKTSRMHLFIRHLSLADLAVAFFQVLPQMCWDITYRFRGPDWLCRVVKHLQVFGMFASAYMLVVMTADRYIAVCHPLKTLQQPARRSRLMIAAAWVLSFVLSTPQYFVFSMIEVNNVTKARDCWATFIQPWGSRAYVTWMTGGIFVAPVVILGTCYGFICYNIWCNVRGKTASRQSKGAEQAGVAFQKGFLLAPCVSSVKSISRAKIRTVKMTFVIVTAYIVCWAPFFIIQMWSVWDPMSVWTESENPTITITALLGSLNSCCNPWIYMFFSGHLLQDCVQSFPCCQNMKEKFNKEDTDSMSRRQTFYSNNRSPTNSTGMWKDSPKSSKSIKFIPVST

IC50 (human V1a receptor) [nM] | ratio IC50 hV2/hV1a (human V1a receptor) | IC50 (human V2 receptor) [nM] | SMILES
2.9 | 57.6 | 167 | O=C1NCCC1C(=O)NC(Cn1c(-c2ccc(Cl)cc2)nn(Cc2ncn(-c3ncccc3Cl)n2)c1=O)C(F)(F)F (stereo not drawn) [Example 51, N-{3-[3-(4-Chlorophenyl)-1-{[1-(3-chloropyridin-2-yl)-1H-1,2,4-triazol-3-yl]methyl}-5-oxo-1,5-dihydro-4H-1,2,4-triazol-4-yl]-1,1,1-trifluoropropan-2-yl}-2-oxopyrrolidine-3-carboxamide]
1.6 | 23.8 | 38 | O=C(NC(Cn1c(-c2ccc(Cl)cc2)nn(Cc2ncn(-c3ncccc3Cl)n2)c1=O)C(F)(F)F)C1CC(F)(F)CN1 (stereo not drawn) [Example 53, N-{3-[3-(4-Chlorophenyl)-1-{[1-(3-chloropyridin-2-yl)-1H-1,2,4-triazol-3-yl]methyl}-5-oxo-1,5-dihydro-4H-1,2,4-triazol-4-yl]-1,1,1-trifluoropropan-2-yl}-4,4-difluoro-prolinamide]
3.9 | 42.3 | 165 | CC(C)(C)OC(=O)N1CC(F)(F)C1C(=O)NC(Cn1c(-c2ccc(Cl)cc2)nn(Cc2ncn(-c3ncccc3Cl)n2)c1=O)C(F)(F)F (stereo not drawn) [Example 54, tert-Butyl 2-({3-[3-(4-chlorophenyl)-1-{[1-(3-chloropyridin-2-yl)-1H-1,2,4-triazol-3-yl]methyl}-5-oxo-1,5-dihydro-4H-1,2,4-triazol-4-yl]-1,1,1-trifluoropropan-2-yl}carbamoyl)-3,3-difluoro-azetidine-1-carboxylate]
1.95 | 54.4 | 106 | O=C(NC(Cn1c(-c2ccc(Cl)cc2)nn(Cc2ncn(-c3ncccc3Cl)n2)c1=O)C(F)(F)F)C1NCC1(F)F (stereo not drawn) [Example 55, N-{3-[3-(4-Chlorophenyl)-1-{[1-(3-chloropyridin-2-yl)-1H-1,2,4-triazol-3-yl]methyl}-5-oxo-1,5-dihydro-4H-1,2,4-triazol-4-yl]-1,1,1-trifluoropropan-2-yl}-3,3-difluoroazetidine-2-carboxamide]
8.1 | 126.8 | 1030 | CC(C)(C)OC(=O)N1CCC1C(=O)NC(Cn1c(-c2ccc(Cl)cc2)nn(Cc2ncn(-c3ncccc3Cl)n2)c1=O)C(F)(F)F (stereo not drawn) [Example 56, tert-Butyl 2-({3-[3-(4-chlorophenyl)-1-{[1-(3-chloropyridin-2-yl)-1H-1,2,4-triazol-3-yl]methyl}-5-oxo-1,5-dihydro-4H-1,2,4-triazol-4-yl]-1,1,1-trifluoropropan-2-yl}carbamoyl)azetidine-1-carboxylate]
31.5 | 62.8 | 1980 | O=C(NC(Cn1c(-c2ccc(Cl)cc2)nn(Cc2ncn(-c3ncccc3Cl)n2)c1=O)C(F)(F)F)C1CCN1 (stereo not drawn) [Example 57, N-{3-[3-(4-Chlorophenyl)-1-{[1-(3-chloropyridin-2-yl)-1H-1,2,4-triazol-3-yl]methyl}-5-oxo-1,5-dihydro-4H-1,2,4-triazol-4-yl]-1,1,1-trifluoropropan-2-yl}azetidine-2-carboxamide]
5.4 | 45.4 | 245 | O=C(NC(Cn1c(-c2ccc(Cl)cc2)nn(Cc2ncn(-c3ncccc3C(F)(F)F)n2)c1=O)C(F)(F)F)C1CC1(F)F (stereo not drawn) [Example 66, N-{3-[3-(4-Chlorophenyl)-5-oxo-1-({1-[3-(trifluoromethyl)pyridin-2-yl]-1H-1,2,4-triazol-3-yl}methyl)-1,5-dihydro-4H-1,2,4-triazol-4-yl]-1,1,1-trifluoropropan-2-yl}-2,2-difluorocyclopropane-1-carboxamide]
1.95 | 51.8 | 101 | Cl.O=C(NC(Cn1c(-c2ccc(Cl)cc2)nn(Cc2ncn(-c3ncccc3C(F)(F)F)n2)c1=O)C(F)(F)F)C1NCC1(F)F (stereo not drawn) [Example 69, N-{3-[3-(4-Chlorophenyl)-5-oxo-1-({1-[3-(trifluoromethyl)pyridin-2-yl]-1H-1,2,4-triazol-3-yl}methyl)-1,5-dihydro-4H-1,2,4-triazol-4-yl]-1,1,1-trifluoropropan-2-yl}-3,3-difluoroazetidine-2-carboxamide]
6.35 | 70.1 | 445 | Cl.O=C(NC(Cn1c(-c2ccc(Cl)cc2)nn(Cc2ncn(-c3ncccc3C(F)(F)F)n2)c1=O)C(F)(F)F)[C@@H]1C[C@@H](F)CN1 (stereo partly drawn) [Example 70, N-{3-[3-(4-Chlorophenyl)-5-oxo-1-({1-[3-(trifluoromethyl)pyridin-2-yl]-1H-1,2,4-triazol-3-yl}methyl)-1,5-dihydro-4H-1,2,4-triazol-4-yl]-1,1,1-trifluoropropan-2-yl}-4-fluoro-L-prolinamide]
4.9 | 56.1 | 275 | Cl.O=C(NC(Cn1c(-c2ccc(Cl)cc2)nn(Cc2ncn(-c3ncccc3C(F)(F)F)n2)c1=O)C(F)(F)F)[C@@H]1C[C@H](F)CN1 (stereo partly drawn) [Example 71, N-{3-[3-(4-Chlorophenyl)-5-oxo-1-({1-[3-(trifluoromethyl)pyridin-2-yl]-1H-1,2,4-triazol-3-yl}methyl)-1,5-dihydro-4H-1,2,4-triazol-4-yl]-1,1,1-trifluoropropan-2-yl}-4-fluoro-L-prolinamide]
